# Bridge positions count the residues as written; N and C are the ends. Ends that are not written are not given here.
# Experiments:
# mAb MG21 = experiment: Inhibition of binding of anti-GD3 mAb MG21 to GD3+ Melur melanoma cells by peptide mimic; conditions: cyclized peptide; FIG. 2a, 2b
# Source text: (§1) FIGS. 2a, 2b and 2c are representations of inhibition of binding of anti-GD3 monoclonal antibody to GD3+ cells by peptide mimics of the present invention. Data is shown for pMG21-15-1 (FIG. 2a), pMG21-8-4 (FIG. 2b) and pMG22-8-1 (FIG. 2c) for inhibition of binding of mAb MG22 (-∘-); mAb MG21 (-●-) and mAb 763.74 (-Δ-).
# (§2) For further characterization, the pVIII gene inserts of positive phage clones identified by reverse ELISA were sequenced. Peptides encoded by these sequences were synthesized and then tested for GD3 specificity. This was done by assessing the peptides' ability to compete with MG21 or MG22 for binding to GD3-bearing melanoma cell line in vitro.
# (§3) Cyclized pMG21-15-1, pMG21-8-4 and pMG22-8-1 were tested for inhibiting the binding of the anti-GD2 mAb to Melur melanoma cells.
# mAb MG22 = experiment: Inhibition of binding of anti-GD3 mAb MG22 to GD3+ Melur melanoma cells by peptide mimic
# Source text: as §1
# FIG. 3 is a representation of the effect of dithiothrietol (DTT) on inhibition of MG22 binding to GD2/3+Melur cells by […]. […] This inhibitory effect was abolished by the pre-incubation of pMG22-8-1 with 10 mM DTT (—SH), confirming that the inhibitory peptide was in its cyclized form (-S-S-). 763.74, a monoclonal antibody that recognizes another melanoma-associated antigen—the High Molecular Weight-Melanoma Associated Antigen (HMW-MAA), is used here as an irrelevant antibody to show the binding specificity of GD2/3 peptide mimic pMG22-8-1 for mAb MG22; and p763.74 is a HMW-MAA peptide mimic isolated using the mAb 763.74. It is used here as an irrelevant peptide mimic to show the binding specificity of the GD3-specific mAb MG22 for pMG22-8-1.
# as §2, §3
# The effect of 10 mM DTT on the inhibition of binding of anti-GD3 mAb to GD3+ cells was investigated.
# [1] = Induction of anti-peptide and anti-carrier antibodies in immunized mice; type: in vivo
# Source text: FIGS. 4a, 4b, 4c are representations of induction of the anti-peptide and anti-carrier reponses. Mice were immunized on day 0, 14, 28 and 42. Sera was collected on day 10, 24 and 38. Results are shown for mice immunized with p763.74 (FIG. 4a), pMG22-8-1 (FIG. 4b) and KLH (FIG. 4c). Preimmune sera is indicated as -∘-; reaction against the immunized peptide is indicated as -●-; and reaction against peptide not used for immunization is indicated as -Δ-.
# Mice were immunized with pMG22-8-1, p763.74 peptides or KLH. Sera was tested on day 10, 24 and 38. […] In the group immunized with pMG22-8-1, the titer of antibodies reacting against the GD3 peptide mimic is observed.
# [2] = system: GD3 positive (Melur) cells; experiment: Reactivity of sera from immunized mice to GD3 positive (Melur) versus GD3 negative (LG2) cells by ELISA; type: in vivo; conditions: following two immunizations, Melur vs LG2 cells, sera day 24 and 38
# Method: FIGS. 5a and 5b are representations of the selective reactivity of sera from mice immunized with GD3 peptide mimic pMG22-8-1. Immunizations were carried out on […], day 14, day 28 and day 42. Serum samples were collected on day 24 and day 38 and tested for binding to GD3 positive or negative cells. Results are shown for a peptide mimic according to the present invention (pMG22-8-1; FIG. 5b) and control peptide (p763.74; FIG. 5a).
# Mice were immunized with peptide pMG22-8-1 (SEQ ID NO:6) on days 0, 14, 28 and 42. Sera was collected on days 24 and 38. The sera was tested for reactivity to GD3 positive (Melur) cells compared with GD3 negative cells (LG2) by ELISA.
# [3] = molecular target: anti-GD3 monoclonal antibody MG22; experiment: inhibition of mAb MG22 binding to GD2/3+ Melur melanoma cells by cyclized peptide, at 500 µM peptide
molecule,measurement,setting,value
"QPFPCYSNAPCQSPS (not fully specified (bridges); cysteine pairing not given here) [pMG21-15-1, GD3 peptide mimic isolated using MG21 from X15 phage library]",inhibition of binding of panning mAb MG21 to Melur melanoma cells,mAb MG21,inhibited in a specific and dose-dependent manner
"RCPPEYVAADCD (disulfide 2-11 (inferred)) [pMG21-8-4, GD3 peptide mimic isolated using MG21 from LX-8 phage library]",inhibition of binding of panning mAb MG21 to Melur melanoma cells,mAb MG21,inhibited in a specific and dose-dependent manner
"MCPTDMPASLCM (disulfide 2-11 (inferred)) [pMG22-8-1, GD3 peptide mimic isolated using MG22 from LX-8 phage library]",inhibition of mAb MG22 binding to GD3+ cells after pre-incubation of the peptide with DTT,"mAb MG22; 10 mM DTT (reduced, non-cyclized peptide)",abolished
same,inhibition of binding of MG22 to Melur cells,"mAb MG22; at 500 μM peptide, GD2/3+ Melur cells, dose-dependent",up to 72%
same,inhibition of binding of panning mAb MG22 to Melur melanoma cells,"mAb MG22; cyclized peptide, FIG. 2c",inhibited in a specific and dose-dependent manner
same,titer of non-specific antibodies reacting to p763.74 (peptide not used for immunization),"[1]; group immunized with pMG22-8-1, FIG. 4b",increase
same,titer of serum antibodies reacting to the immunogen,"[1]; mice immunized day 0, 14, 28, 42, sera day 10, 24, 38",high titer
same,mice whose serum reacted selectively to GD3 positive cell line,[2],one out of eight mice
MCPTDMPASLCM (disulfide 2-11 (inferred)) [pMG22-8-1],% inhibition of MG22 binding to Melur cells,[3],72%
